The source of these data is ChEMBL document CHEMBL1132674, “Design, synthesis and DNA-cleavage of Gly-Gly-His-naphthalene diimide conjugates” (Bioorg Med Chem Lett, 1999).

A short description of this assay: Binding constant of the compound.

`CN(CCCN)CCCN1C(=O)c2ccc3c4c(ccc(c24)C1=O)C(=O)N(CCCN(C)CCCNC(=O)C(Cc1c[nH]cn1)NC(=O)CNC(=O)CN)C3=O` (configuration not stated): the Binding constant stood at 100000 M⁻¹.

Compound `CN(CCCNC(=O)C(Cc1c[nH]cn1)NC(=O)CNC(=O)CN)CCCN1C(=O)c2ccc3c4c(ccc(c24)C1=O)C(=O)N(CCCN(C)CCCNC(=O)C(Cc1c[nH]cn1)NC(=O)CNC(=O)CN)C3=O` (configuration not stated) came in with a Binding constant of 100000 M⁻¹.
